# Data as given in patent US7741359B2, “Hydrogen sulfide derivatives of non-steroidal anti-inflammatory drugs” (Antibe Therapeutics Inc., priority 2006, dated 2010).
# “Also recorded” adds a separate entry of the source.
# Tests used:
# [1] = tested on: gastric prostaglandin E2 (PGE2) synthesis (COX-1 and/or COX-2); assay: Gastric prostaglandin E2 (PGE2) synthesis in excised rat gastric tissue; assay type: in vivo; conditions: oral; doses equimolar to diclofenac 20 mg/kg; tissue taken 3 h after administration; FIG. 2
# Experimental: Briefly, the tissue samples were minced with scissors for 30 min, then placed in 1 mL of sodium phosphate buffer (pH 7.4) and placed in a shaking water bath (37° C.) for 20 min.
# COX-1 [2] = biological target: T1, COX-1 (Rattus norvegicus, UniProt Q63921); assay: Whole blood thromboxane B2 synthesis of treated rats (inhibition of COX-1); assay type: in vivo
# T1 construct: whole blood thromboxane synthesis, which occurs via COX-1; from tissue; host or cells: rat whole blood (ex vivo clotting after oral dosing)
# T1 sequence (Q63921 27-602): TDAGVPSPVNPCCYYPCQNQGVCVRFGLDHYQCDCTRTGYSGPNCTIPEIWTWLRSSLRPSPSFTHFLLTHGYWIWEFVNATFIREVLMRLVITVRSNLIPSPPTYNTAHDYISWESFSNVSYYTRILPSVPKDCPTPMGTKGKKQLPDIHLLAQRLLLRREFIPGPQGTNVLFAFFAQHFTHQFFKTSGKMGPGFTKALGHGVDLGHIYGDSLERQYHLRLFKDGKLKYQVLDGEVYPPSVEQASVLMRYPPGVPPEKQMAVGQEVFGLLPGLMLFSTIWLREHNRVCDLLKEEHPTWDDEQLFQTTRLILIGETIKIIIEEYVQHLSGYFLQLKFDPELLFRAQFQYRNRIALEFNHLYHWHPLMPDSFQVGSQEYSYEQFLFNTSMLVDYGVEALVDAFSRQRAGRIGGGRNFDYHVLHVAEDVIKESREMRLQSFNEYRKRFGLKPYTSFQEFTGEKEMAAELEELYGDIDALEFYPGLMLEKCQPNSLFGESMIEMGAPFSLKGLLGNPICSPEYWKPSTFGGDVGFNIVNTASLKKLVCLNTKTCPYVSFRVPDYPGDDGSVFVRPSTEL
# Experimental: Inhibition of COX-1 was also measured using the same rats. […] The samples were then centrifuged for 3 min at 9,000 g and the supernatant was frozen at −80° C. for subsequent measurement of thromboxane B2 concentrations using a specific ELISA.
# Inhibition of COX-1 was also measured using the same rats, using the same method as described for FIG. 4. […]
# [3] = Hematocrit before and after repeated administration; assay type: in vivo, rat; conditions: 50 μmol/kg at time 0, 12 and 24 hours; start versus 24 h after final dose; FIG. 6
# Description: Another group of rats received vehicle (1% carboxymethylcellulose).
# COX-2 = biological target: T2, COX-2 (Rattus norvegicus, UniProt P35355); assay: Rat airpouch assay, exudate PGE2 after zymosan (inhibition of COX-2 in vivo)
# T2 construct: from tissue; host or cells: rat subcutaneous airpouch (in vivo, zymosan-induced inflammation)
# T2 sequence (P35355 18-604): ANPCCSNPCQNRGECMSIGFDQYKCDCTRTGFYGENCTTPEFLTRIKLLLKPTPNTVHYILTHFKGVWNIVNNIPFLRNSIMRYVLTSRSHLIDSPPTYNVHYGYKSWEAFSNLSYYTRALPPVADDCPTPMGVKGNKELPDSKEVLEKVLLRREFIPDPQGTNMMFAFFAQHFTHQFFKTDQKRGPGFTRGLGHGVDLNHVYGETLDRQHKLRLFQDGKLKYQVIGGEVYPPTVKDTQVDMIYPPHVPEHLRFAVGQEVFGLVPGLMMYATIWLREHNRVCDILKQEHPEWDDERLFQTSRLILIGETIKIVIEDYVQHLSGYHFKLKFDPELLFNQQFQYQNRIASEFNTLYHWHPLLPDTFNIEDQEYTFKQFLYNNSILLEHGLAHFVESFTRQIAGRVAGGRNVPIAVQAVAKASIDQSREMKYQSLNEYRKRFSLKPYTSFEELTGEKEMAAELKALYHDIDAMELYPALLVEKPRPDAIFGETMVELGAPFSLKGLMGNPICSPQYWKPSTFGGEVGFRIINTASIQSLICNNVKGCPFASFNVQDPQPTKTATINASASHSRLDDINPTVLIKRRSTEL
# Experimental: Briefly, a subcutaneous “pouch” is created by repeated injections of air over several days. Once established, inflammation in the pouch can be induced by injection of 1 mL of 1% zymosan. […] Another group of 5 rats was treated with the vehicle, but received an injection of 0.9% sterile saline into the pouch rather than zymosan. […]
# Each group consisted of 5 rats.
# [4] = Carrageenan hindpaw edema model; assay type: in vivo, rat; conditions: 30 min prior to carrageenan
# Experimental: Male, Wistar rats weighing 175-200 g were given the test compounds orally 30 min prior to subplantar injection of 100 ul of 1% lambda carrageenan. Paw volume measured using an Ugo Basile hydroplethysmometer prior to carrageenan injection and at 1-h intervals thereafter for 5 h.
# [5] = Small intestinal injury after repeated administration; conditions: 50 μmol/kg at time 0, 12 and 24 hours; assessed 24 h after final dose; FIG. 5
# [6] = Systolic blood pressure in hypertensive (L-NAME) rats; conditions: 30 μmol/kg intraperitoneal bolus; recorded for 60 minutes; FIG. 14
# [7] = Gastric damage (gastric damage score) in rats after oral dosing; conditions: rats fasted 18 h; oral; doses equimolar to diclofenac 20 mg/kg; 3 h after administration; FIG. 1
# [8] = Incidence of gastric damage at the end of the leukocyte adherence experiment; conditions: intragastric 30 μmol/kg; for Percent Incidence of Gastric Damage: end of experiment
# Experimental: Briefly, post-capillary mesenteric venules in anesthetized rats are examined under a light microscope. […] All test compounds were prepared in a vehicle of 1% carboxymethylcellulose. Changes in leukocyte adherence within the venule were recorded with a video camera attached to the microscope, and quantification of the numbers of adherent leukocytes was performed in a blind manner through evaluation of the videotaped images. Each group consisted of 5 male, Wistar rats weighing 150-175 g. A leukocyte was considered “adherent” if it remained stationary for 30 seconds or more (results below are expressed as the mean ± SEM). At the end of the experiment the stomach was opened and examined for the presence of gastric damage, under a dissecting microscope.
# [9] = tested on: leukocyte adherence to the vascular endothelium; assay: Leukocyte adherence to the vascular endothelium, intravital microscopy of mesenteric venules; conditions: intragastric 30 μmol/kg; for Number of Adherent Leukocytes: mean ± SEM
# Experimental: Briefly, post-capillary mesenteric venules in anesthetized rats are examined under a light microscope. […] All test compounds were prepared in a vehicle of 1% carboxymethylcellulose. Changes in leukocyte adherence within the venule were recorded with a video camera attached to the microscope, and quantification of the numbers of adherent leukocytes was performed in a blind manner through evaluation of the videotaped images. Each group consisted of 5 male, Wistar rats weighing 150-175 g. A leukocyte was considered “adherent” if it remained stationary for 30 seconds or more (results below are expressed as the mean ± SEM).
# COX-1 [10] = biological target: T3, COX-1 (Homo sapiens, UniProt P23219); assay: Human whole blood thromboxane B2 synthesis in vitro; assay type: cell-based; conditions: FIG. 12; for inhibition of COX-1 activity (thromboxane B2 synthesis by human blood): 0.1, 0.3, 1 or 3 μM, 45 min 37° C.
# T3 construct: from tissue; host or cells: human whole blood from healthy volunteers
# Experimental: Aliquots (0.5 mL) of blood from healthy human volunteers were added to glass tubes containing 10 uL of methanol alone, or one of the test drugs prepared such that the final concentration would be 0.1, 0.3, 1 or 3 μM. The tubes were placed in water bath (37° C.) with gentle shaking for 45 min, after which they were centrifuged (1,000×g) for 10 minutes. The concentration of thromboxane B2 in each sample was then determined using a specific ELISA, as in the studies shown in FIG. 4.
# [11] = Healing of acetic acid-induced gastric ulcers; assay type: in vivo, rat
# Experimental: Gastric ulcers were induced via serosal application of acetic acid, as described by Elliott et al., A nitric oxide-releasing nonsteroidal anti-inflammatory drug accelerates gastric ulcer healing in rats. Gastroenterology 1995; 109: 524-530. […] After 4 days of such treatment, the rats were euthanized and the stomach was excised and photographed. The area (in mm^2) of the ulcer was determined planimetrically by an individual unaware of the treatments given to the rats. In a subgroup of 5 rats euthanized 3 days after induction of gastric ulcers (i.e., prior to initiation of drug treatment), the mean surface area of the ulcers was 24±2 mm^2.
# T3 sequence (P23219 24-599): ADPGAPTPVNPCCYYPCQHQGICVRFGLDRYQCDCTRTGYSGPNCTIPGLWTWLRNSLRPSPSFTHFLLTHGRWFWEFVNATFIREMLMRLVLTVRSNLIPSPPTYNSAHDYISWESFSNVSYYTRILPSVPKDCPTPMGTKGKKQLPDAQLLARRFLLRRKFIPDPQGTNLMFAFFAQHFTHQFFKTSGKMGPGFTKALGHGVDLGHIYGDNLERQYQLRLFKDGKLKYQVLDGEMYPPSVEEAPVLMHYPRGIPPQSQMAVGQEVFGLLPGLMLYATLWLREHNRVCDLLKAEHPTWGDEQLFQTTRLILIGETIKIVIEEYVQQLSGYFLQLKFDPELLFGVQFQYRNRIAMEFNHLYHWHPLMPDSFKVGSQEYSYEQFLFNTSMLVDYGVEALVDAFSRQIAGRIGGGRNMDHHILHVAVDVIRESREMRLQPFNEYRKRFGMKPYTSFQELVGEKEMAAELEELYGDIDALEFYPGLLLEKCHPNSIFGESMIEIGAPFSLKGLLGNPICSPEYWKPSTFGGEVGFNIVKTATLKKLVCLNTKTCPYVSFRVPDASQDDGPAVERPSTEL
smiles,measurement,setting,value
"O=C(Cc1ccccc1Nc1c(Cl)cccc1Cl)Oc1ccc(-c2cc(=S)ss2)cc1 [Compound II, [2-(2,6-dichloro-phenylamino)-phenyl]-acetic acid 4-(5-thioxo-5H-[1,2]dithiol-3-yl)-phenyl ester]",gastric PGE2 synthesis,[1],significantly reduced the amount of gastric PGE2 synthesis; also recorded: near-complete
same,inhibition at 4.8 mg/kg,"COX-1 [2]; rat, po",> 80%
same,hematocrit,[3],no significant effect on hematocrit
same,concentrations of PGE2 within the pouch (COX-2),"COX-2; oral 30 min before injection, diclofenac 3 mg/kg, Compound II 4.8 mg/kg, Compound XVII 4.1 mg/kg, 1% zymosan, FIG. 7",markedly reduced the concentrations of PGE2 within the pouch
same,paw edema (paw volume increase),"[4]; oral, dose equimolar to diclofenac at 3 mg/kg, compared with diclofenac, FIGS. 9, 10, 3 mg/kg",reduced paw edema to a greater extent; also recorded: comparable to the effect of diclofenac at a dose of 10 mg/kg
same,"extent of small intestinal damage, less than in rats treated with diclofenac",[5],> 90%
same,change in systolic blood pressure,[6],"did not increase systolic blood pressure as compared to the vehicle-treated group; also recorded: significantly lower than that induced by diclofenac and naproxen, respectively"
same,gastric damage score,[7],no gastric damage was seen; also recorded: elicited significantly less gastric damage than diclofenac
same,percent incidence of gastric damage compared to the parent NSAID alone,[8],significantly reduced the percent incidence of gastric damage when compared to diclofenac alone
same,Percent Incidence of Gastric Damage,[8],0%
same,number of adherent leukocytes compared to the parent NSAID alone,[9],significantly reduced the number of adherent leukocytes per 100 μm vessel length
same,Number of Adherent Leukocytes,[9],3.0 ± 0.5 per 100 μm vessel length
"COc1ccc2c(c1)c(CC(=O)Oc1ccc(-c3cc(=S)ss3)cc1)c(C)n2C(=O)c1ccc(Cl)cc1 [Compound IV, [1-(4-Chloro-benzoyl)-5-methoxy-2-methyl-1-H-indol-3-yl]-acetic acid 4-(5-thioxo-5-H-[1,2]dithiol-3-yl)-phenyl ester]",inhibition of COX-1 activity (thromboxane B2 synthesis by human blood),COX-1 [10],concentration-dependent inhibition of COX-1 activity as compared to the vehicle-treated group
same,Percent Incidence of Gastric Damage,[8],20%
same,Number of Adherent Leukocytes,[9],3.6 ± 0.7 per 100 μm vessel length
"COc1ccc2c(c1)c(CC(=O)Oc1ccc(C(N)=S)cc1)c(C)n2C(=O)c1ccc(Cl)cc1 [Compound XIX, [1-(4-Chloro-benzoyl)-5-methoxy-2-methyl-1-H-indol-3-yl]-acetic acid 4-thiocarbamoyl-phenyl ester]",inhibition of COX-1 activity (thromboxane B2 synthesis by human blood),COX-1 [10],"concentration-dependent inhibition of COX-1 activity as compared to the vehicle-treated group; also recorded: significantly better at inhibiting thromboxane B2 synthesis than the ADT-OH equivalent, Compound IV"
same,inhibition of COX-1 activity compared with indomethacin,COX-1 [10]; concentrations of 1 and 3 μM,significantly greater (*p<0.05) inhibition of COX-1 activity than that produced by indomethacin
same,Percent Incidence of Gastric Damage,[8],0%
"O=C(O)Cc1ccccc1Nc1c(Cl)cccc1Cl [Diclofenac, diclofenac, reference compound]",hematocrit,[3],profound reduction of hematocrit
same,paw edema (paw volume increase),"[4]; oral 1, 3 or 10 mg/kg, FIG. 9",dose-dependently reduced paw edema
same,gastric ulcer healing (ulcer area),"[11]; 30 μmol/kg twice-daily orally for 4 days, starting 3 days after ulcer induction, FIG. 13",exhibited similar degrees of healing
same,small intestinal damage (erosions/ulcers),[5],extensive erosions and ulcers in the small intestine
same,change in systolic blood pressure,[6],caused a substantial increase in systolic blood pressure
"NC(=S)c1ccc(O)cc1 [TBZ, 4-hydroxythiobenzamide, reference compound]",gastric PGE2 synthesis,[1],did not reduce gastric PGE2 synthesis when compared to vehicle
same,COX-1 activity (whole blood thromboxane synthesis),"COX-1 [2]; hydrogen sulfide releasing moieties alone, dose not given, FIG. 8",neither of the hydrogen sulfide releasing moieties (ADT-OH and TBZ) significantly affected COX-1 activity
same,COX-2 activity (exudate PGE2),"COX-2; hydrogen sulfide releasing moieties alone, dose not given",neither of the hydrogen sulfide releasing moieties (ADT-OH and TBZ) significantly affected COX-2 activity
same,gastric ulcer healing (ulcer area),"[11]; hydrogen sulfide releasing moiety alone, dose not given",did not significantly affect the healing of gastric ulcers as compared to the vehicle-treated group
